Data taken from patent US12005034B2 (ALGOTHERAPEUTIX, priority 2017, dated 2024).

Assays:
TRPV1 = biological target: T1, TRPV1 (Mus musculus, UniProt Q704Y3); assay: Calcium mobilization in DRG neurons with TRPV1 antagonist or agonist; assay type: cell-based
T1 construct: calcium ion mobilization was investigated in primary cultures of mouse DRG neurons; endogenous in cells; host or cells: primary mouse DRG neurons
Experimental: (§1) For calcium mobilization measurements, 10 DRG cultures (two mice per culture) were washed with Hanks Balanced Salt Solution (HBSS, Thermo Fisher Scientific, Massachusetts, USA), and incubated in HBSS containing 1 μg/ml papain (Sigma Aldrich, Missouri, USA) and L-cysteine (pH 7.4, Sigma Aldrich) for 10 minutes at 37° C. […] Neurons were then mechanically dissociated. […] DRG neurons were incubated with HBSS containing 20 mM Hepes, […] fluo-4 acetoxymethyl (AM) ester (Thermo Fisher Scientific, Waltham, MA USA) and 0.02% pluronic acid for 30 min at 37° C. followed by an additional incubation for 30 min at room temperature. The medium was then discarded and replaced by HBSS. […] The effects of TRP channel agonists and antagonists on amitriptyline-induced calcium ion mobilization were then assessed as follows: neurons were incubated with either an antagonist for TRPV1 (10 μM AMG 9810, Sigma Aldrich) or an antagonist for TRPA1 (HCO30031; […] Sigma Aldrich). Neurons were imaged using an inverted microscope (Zeiss) and a 10×0.5 NA objective. […] Baseline fluorescence was determined for 0 to 10 seconds, and then fluorescence was measured from the 10th to the 65th second after the neurons were incubated with the drugs or controls. […] Variations in fluorescence intensity measured in each neuron were identified using Image J2 software.

mouse DRG neurons = assay: Calcium mobilization in DRG neurons, fluo-4 calcium imaging; assay type: cell-based
Experimental: For calcium mobilization measurements, 10 DRG cultures (two mice per culture) were washed with Hanks Balanced Salt Solution (HBSS, Thermo Fisher Scientific, Massachusetts, USA), and incubated in HBSS containing 1 μg/ml papain (Sigma Aldrich, Missouri, USA) and L-cysteine (pH 7.4, Sigma Aldrich) for 10 minutes at 37° C. […] Neurons were then mechanically dissociated. […] DRG neurons were incubated with HBSS containing 20 mM Hepes, […] fluo-4 acetoxymethyl (AM) ester (Thermo Fisher Scientific, Waltham, MA USA) and 0.02% pluronic acid for 30 min at 37° C. followed by an additional incubation for 30 min at room temperature. The medium was then discarded and replaced by HBSS. […] The effects of TRP channel agonists and antagonists on amitriptyline-induced calcium ion mobilization were then assessed as follows: neurons were incubated with either an antagonist for TRPV1 (10 μM AMG 9810, Sigma Aldrich) or an antagonist for TRPA1 (HCO30031; […] Sigma Aldrich). Neurons were imaged using an inverted microscope (Zeiss) and a 10×0.5 NA objective. Images were acquired using a CCD camera (Zeiss) and Zen software (Zeiss). Acquisition parameters were kept constant during each experiment. Kinetic analysis was performed using 85 recordings (one per second). Baseline fluorescence was determined for 0 to 10 seconds, and then fluorescence was measured from the 10th to the 65th second after the neurons were incubated with the drugs or controls. At 65 seconds, 50 mM KCl was added to the cells in order to allow discrimination between neurons and glial cells. Variations in fluorescence intensity measured in each neuron were identified using Image J2 software.

Nav1.8 = biological target: T2, Nav1.8 (Mus musculus, UniProt Q6QIY3); assay: Whole-cell patch-clamp of sodium currents in Nav1.9-/- DRG neurons; assay type: cell-based; settings: holding potential −100 mV, cumulative 1 μM-1 mM; read-out: IC50, block of Nav1.8 current
T2 construct: The Nav1.8 current was recorded in Nav1.9−/− DRG neurons; endogenous in cells; host or cells: primary DRG neurons from Nav1.9-/- mice (C57Bl/6J background)

[1] = system: TTX-S Nav channels (Nav1.1 and Nav1.6); assay: Whole-cell patch-clamp of TTX-sensitive sodium currents in wild-type DRG neurons; assay type: cell-based, mouse; settings: read-out: IC50, block of TTX-S Nav currents; holding potential −80 mV, touch mechanoreceptors
Experimental: (§2) Cultures of DRG were prepared from male mice anesthetized with isoflurane (4%, Piramal Critical Care) and sacrificed by severing of the carotid arteries. Cultures of dissociated DRG neurons were established from thoracolumbar DRG.
(§3) DRG for whole-cell patch-clamp recordings were incubated in Hanks balance salt solution (Invitrogen, France) containing 2 mg/ml of collagenase IA (Sigma, France) for approximately 45 minutes at 37° C. DRG were washed at least 10 times and then triturated with a fired polished glass Pasteur pipette. […]
(§4) Patch clamp recordings were made using borosilicate electrodes (Harvard Apparatus, Holliston, Massachusetts, USA) with a resistance of 2-3 MΩ when filled with an intracellular solution consisting of (in mM): 130 CsCl, 10 Hepes, 8 NaCl, 0.4 NaGTP, 4 MgATP, 1 MgCl2, 1 CaCl2 and 10 EGTA (adjusted to pH 7.3 with CsOH, ˜300 mOsm/L). […] Sodium currents were recorded individually. […] The Nav1.8 current was recorded in Nav1.9−/− DRG neurons, whereas the Nav1.9 current was recorded in Nav1.8−/− DRG neurons. […] Fast activating/inactivating TTX-sensitive Na+ currents (Nav1.1 and Nav1.6) in putative non-nociceptors were recorded in wild-type DRG neurons that had large cell membrane capacitance (Cm>60 pF) and lacked any TTX-resistant Na+ current components. […]

Aβ fibers = assay: Ex vivo single unit recordings, skin-saphenous nerve preparation; assay type: cell-based, mouse
Experimental: (§5) Adult male mice were anesthetized with isoflurane (4%) and sacrificed by severing of the carotid arteries. Skin-saphenous nerve preparations and single-fiber recordings were carried out. The saphenous nerve and the skin of the hind limb were carefully dissected and placed in a custom-designed organ chamber containing warm oxygenated synthetic interstitial fluid (SIF). […] The saphenous nerve was placed in an adjacent recording chamber filled with mineral oil, gently teased, and groups of nerve fibers were placed on a gold recording electrode in order to isolate single-unit activity. […] Cambridge Electronic Design Limited, UK). Spikes were discriminated off-line using the Spike2 software (Cambridge Electronic Design Limited, UK) and analyzed individually to avoid false positives. The mechanically evoked activity of single saphenous nerve fibers was first obtained in response to von Frey hair stimulations (Friedrich-Alexander University, Erlangen, Germany). Once a receptive field had been characterized, a patch of skin was isolated from the surrounding bath using a plastic minichamber (inner diameter: 0.8 cm) continuously superfused with buffer at 31° C. The receptive field was then stimulated using von Frey mechanical probes mounted on the arm of a computer-controlled piezoelectric […]® controller; PI, Germany). Conduction velocity was determined by electrically stimulating (Tungsten microelectrode: 10 mm ext/60 mm PI; FHC, USA) identified receptive fields with square wave pulses (0.1-0.5 ms, 7-15 V). Axons were considered to be A-type when the conduction velocity was over 4 m/s. Fibers with a conduction velocity below 1 m/s were classified as C fibers.

C fibers = assay: as above; assay type: cell-based, mouse
Experimental: as §5

neuropathic pain = settings: topical, maximum dose used 5%; cited from earlier work
C, Aδ and Aβ fibers = assay: Ex vivo single unit recordings, skin-saphenous nerve preparation, all fiber types; assay type: cell-based, mouse
Experimental: (§6) Adult male mice were anesthetized with isoflurane (4%) and sacrificed by severing of the carotid arteries. Skin-saphenous nerve preparations and single-fiber recordings were carried out. The saphenous nerve and the skin of the hind limb were carefully dissected and placed in a custom-designed organ chamber containing warm oxygenated synthetic interstitial fluid (SIF). […] The saphenous nerve was placed in an adjacent recording chamber filled with mineral oil, gently teased, and groups of nerve fibers were placed on a gold recording electrode in order to isolate single-unit activity. […] Cambridge Electronic Design Limited, UK). Spikes were discriminated off-line using the Spike2 software (Cambridge Electronic Design Limited, UK) and analyzed individually to avoid false positives. The mechanically evoked activity of single saphenous nerve fibers was first obtained in response to von Frey hair stimulations (Friedrich-Alexander University, Erlangen, Germany). Once a receptive field had been characterized, a patch of skin was isolated from the surrounding bath using a plastic minichamber (inner diameter: 0.8 cm) continuously superfused with buffer at 31° C. […] Conduction velocity was determined by electrically stimulating (Tungsten microelectrode: 10 mm ext/60 mm PI; FHC, USA) identified receptive fields with square wave pulses (0.1-0.5 ms, 7-15 V). […]

[2] = system: Nav channels in sensory neurons; assay: Whole-cell patch-clamp of sodium currents, all Nav channels tested; assay type: cell-based, mouse; settings: 100 μM
Source text: Patch clamp recordings were made using borosilicate electrodes (Harvard Apparatus, Holliston, Massachusetts, USA) with a resistance of 2-3 MΩ when filled with an intracellular solution consisting of (in mM): 130 CsCl, 10 Hepes, 8 NaCl, 0.4 NaGTP, 4 MgATP, 1 MgCl2, 1 CaCl2 and 10 EGTA (adjusted to pH 7.3 with CsOH, ˜300 mOsm/L). […] Voltage-gated sodium ion currents were leak-subtracted using a P/6 protocol and voltage errors were minimized using 75-80% series resistance compensation. Cultured cells were perfused with the bath solution at flow rate of 5 mL/min. Recordings were made at room temperature (20-24° C.) using an Axopatch 200B amplifier (Axon Instruments, Boston, Massachusetts, USA), filtered at 1-2 kHz, and digitally sampled at 5-20 kHz. Sodium currents were recorded individually. […]. The Nav1.8 current was recorded in Nav1.9−/− DRG neurons, whereas the Nav1.9 current was recorded in Nav1.8−/− DRG neurons. Nav1.8−/− and Nav1.9−/− mice were generated from a C57B1/6J background. Fast activating/inactivating TTX-sensitive Na+ currents (Nav1.1 and Nav1.6) in putative non-nociceptors were recorded in wild-type DRG neurons that had large cell membrane capacitance (Cm>60 pF) and lacked any TTX-resistant Na+ current components. Nav1.7 recordings were made using the transfected HEK cells.

Aδ fibers = assay: Ex vivo single unit recordings, skin-saphenous nerve preparation; assay type: cell-based; settings: Mus musculus, 10 min
Experimental: as §6

[3] = Ex vivo study of percutaneous amitriptyline absorption, Frantz cell; assay type: in vitro ADME, human
hNav1.7 = biological target: T3, hNav1.7 (Homo sapiens, UniProt Q15858); assay: Whole-cell patch-clamp of sodium currents in hNav1.7-transfected HEK293T cells; assay type: cell-based; settings: holding potential −80 mV, cumulative 1 μM-1 mM; read-out: IC50, block of Nav1.7 current
T3 construct: expressed in transfected cells; host or cells: HEK293T
Experimental: Human embryonic kidney 293T (HEK293T) cells were grown in DMEM containing 4.5 mg/ml glucose, 10% FBS, 50 units/ml penicillin and 50 μg/ml streptomycin. Cells were plated onto 12-mm round glass poly-D-lysine-coated coverslips placed in 24-well plates and transfected using lipofectamine 2000 (Invitrogen) according to the manufacturer's instructions. hNav1.7 and GFP plasmids were co-transfected at a concentration of 600 and 100 ng/ml, respectively. Experiments were conducted on cells 24-48 hours post-transfection.
as §4

TRPA1 = biological target: T4, TRPA1 (Mus musculus, UniProt Q8BLA8); assay: Calcium mobilization in DRG neurons with TRPA1 antagonist or agonist; assay type: cell-based
T4 construct: calcium ion mobilization was investigated in primary cultures of mouse DRG neurons; endogenous in cells; host or cells: primary mouse DRG neurons
Experimental: as §1

[4] = in vivo; cited from earlier work
Nav1.9 = biological target: T5, Nav1.9 (Mus musculus, UniProt Q9R053); assay: Whole-cell patch-clamp of sodium currents in Nav1.8-/- DRG neurons; assay type: cell-based; settings: holding potential −100 mV, cumulative 1 μM-1 mM; read-out: IC50, block of Nav1.9 current
T5 construct: the Nav1.9 current was recorded in Nav1.8−/− DRG neurons; endogenous in cells; host or cells: primary DRG neurons from Nav1.8-/- mice (C57Bl/6J background)
Experimental: as §2, §3, §4

[5] = Mus musculus, 10 min, skin superfusion 10 min, 10-100 μM, read-out: IC50, inhibition of mechanically induced firing
[6] = Mus musculus, 10 min, 100 μM, 10 min application to the skin preparation, read-out: Mean inhibition of evoked firing

T4 sequence (Q8BLA8 whole entry): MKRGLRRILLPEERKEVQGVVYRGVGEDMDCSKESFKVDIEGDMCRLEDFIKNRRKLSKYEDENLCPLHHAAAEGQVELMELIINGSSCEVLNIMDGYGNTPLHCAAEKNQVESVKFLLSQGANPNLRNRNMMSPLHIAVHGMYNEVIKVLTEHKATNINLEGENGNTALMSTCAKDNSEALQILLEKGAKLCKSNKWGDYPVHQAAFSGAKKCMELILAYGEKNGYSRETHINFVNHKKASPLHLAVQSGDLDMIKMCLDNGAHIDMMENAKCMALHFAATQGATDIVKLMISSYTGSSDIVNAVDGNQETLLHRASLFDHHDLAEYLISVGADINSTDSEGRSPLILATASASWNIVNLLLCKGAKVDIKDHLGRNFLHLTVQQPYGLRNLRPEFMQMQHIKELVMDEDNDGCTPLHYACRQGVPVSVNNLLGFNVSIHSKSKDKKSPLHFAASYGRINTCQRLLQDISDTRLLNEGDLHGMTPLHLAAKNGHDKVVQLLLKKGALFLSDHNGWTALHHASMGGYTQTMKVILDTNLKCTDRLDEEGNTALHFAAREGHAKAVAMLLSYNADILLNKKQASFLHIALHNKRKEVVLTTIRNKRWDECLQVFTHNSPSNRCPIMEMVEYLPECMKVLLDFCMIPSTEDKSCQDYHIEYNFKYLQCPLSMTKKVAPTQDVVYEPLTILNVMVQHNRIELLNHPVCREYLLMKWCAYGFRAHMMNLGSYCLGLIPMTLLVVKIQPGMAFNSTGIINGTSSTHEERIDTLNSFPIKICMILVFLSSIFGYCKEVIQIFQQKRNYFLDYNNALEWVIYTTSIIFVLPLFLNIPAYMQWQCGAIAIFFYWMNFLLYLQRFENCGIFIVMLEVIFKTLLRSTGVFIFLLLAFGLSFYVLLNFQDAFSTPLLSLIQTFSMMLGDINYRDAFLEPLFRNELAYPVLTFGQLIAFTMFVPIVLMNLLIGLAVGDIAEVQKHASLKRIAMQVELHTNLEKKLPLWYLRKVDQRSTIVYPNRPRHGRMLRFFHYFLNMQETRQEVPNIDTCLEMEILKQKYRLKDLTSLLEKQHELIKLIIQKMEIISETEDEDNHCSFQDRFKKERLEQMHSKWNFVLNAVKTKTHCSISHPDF
T1 sequence (Q704Y3 whole entry): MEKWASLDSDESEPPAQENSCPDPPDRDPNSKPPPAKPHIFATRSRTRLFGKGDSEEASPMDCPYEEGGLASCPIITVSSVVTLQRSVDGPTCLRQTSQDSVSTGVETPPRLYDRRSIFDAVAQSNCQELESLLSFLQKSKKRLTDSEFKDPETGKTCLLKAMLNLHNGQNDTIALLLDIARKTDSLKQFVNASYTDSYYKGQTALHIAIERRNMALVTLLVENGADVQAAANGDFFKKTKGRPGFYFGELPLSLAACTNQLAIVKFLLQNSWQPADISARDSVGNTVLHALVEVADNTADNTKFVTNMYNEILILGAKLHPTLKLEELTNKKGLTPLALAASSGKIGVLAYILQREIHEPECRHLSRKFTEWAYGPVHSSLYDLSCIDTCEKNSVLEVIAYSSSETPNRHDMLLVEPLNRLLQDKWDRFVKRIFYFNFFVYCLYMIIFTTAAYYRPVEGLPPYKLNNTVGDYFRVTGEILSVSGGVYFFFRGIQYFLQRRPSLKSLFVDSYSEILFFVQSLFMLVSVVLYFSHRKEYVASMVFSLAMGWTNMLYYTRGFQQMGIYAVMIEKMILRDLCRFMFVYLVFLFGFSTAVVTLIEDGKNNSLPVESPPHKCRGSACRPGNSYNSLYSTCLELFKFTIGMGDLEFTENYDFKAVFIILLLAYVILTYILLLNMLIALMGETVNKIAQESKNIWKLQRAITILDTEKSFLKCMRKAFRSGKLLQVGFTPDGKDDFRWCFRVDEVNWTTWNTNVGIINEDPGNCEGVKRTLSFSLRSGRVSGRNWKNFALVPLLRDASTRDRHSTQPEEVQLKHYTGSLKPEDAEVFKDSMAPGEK
T3 sequence (Q15858 whole entry): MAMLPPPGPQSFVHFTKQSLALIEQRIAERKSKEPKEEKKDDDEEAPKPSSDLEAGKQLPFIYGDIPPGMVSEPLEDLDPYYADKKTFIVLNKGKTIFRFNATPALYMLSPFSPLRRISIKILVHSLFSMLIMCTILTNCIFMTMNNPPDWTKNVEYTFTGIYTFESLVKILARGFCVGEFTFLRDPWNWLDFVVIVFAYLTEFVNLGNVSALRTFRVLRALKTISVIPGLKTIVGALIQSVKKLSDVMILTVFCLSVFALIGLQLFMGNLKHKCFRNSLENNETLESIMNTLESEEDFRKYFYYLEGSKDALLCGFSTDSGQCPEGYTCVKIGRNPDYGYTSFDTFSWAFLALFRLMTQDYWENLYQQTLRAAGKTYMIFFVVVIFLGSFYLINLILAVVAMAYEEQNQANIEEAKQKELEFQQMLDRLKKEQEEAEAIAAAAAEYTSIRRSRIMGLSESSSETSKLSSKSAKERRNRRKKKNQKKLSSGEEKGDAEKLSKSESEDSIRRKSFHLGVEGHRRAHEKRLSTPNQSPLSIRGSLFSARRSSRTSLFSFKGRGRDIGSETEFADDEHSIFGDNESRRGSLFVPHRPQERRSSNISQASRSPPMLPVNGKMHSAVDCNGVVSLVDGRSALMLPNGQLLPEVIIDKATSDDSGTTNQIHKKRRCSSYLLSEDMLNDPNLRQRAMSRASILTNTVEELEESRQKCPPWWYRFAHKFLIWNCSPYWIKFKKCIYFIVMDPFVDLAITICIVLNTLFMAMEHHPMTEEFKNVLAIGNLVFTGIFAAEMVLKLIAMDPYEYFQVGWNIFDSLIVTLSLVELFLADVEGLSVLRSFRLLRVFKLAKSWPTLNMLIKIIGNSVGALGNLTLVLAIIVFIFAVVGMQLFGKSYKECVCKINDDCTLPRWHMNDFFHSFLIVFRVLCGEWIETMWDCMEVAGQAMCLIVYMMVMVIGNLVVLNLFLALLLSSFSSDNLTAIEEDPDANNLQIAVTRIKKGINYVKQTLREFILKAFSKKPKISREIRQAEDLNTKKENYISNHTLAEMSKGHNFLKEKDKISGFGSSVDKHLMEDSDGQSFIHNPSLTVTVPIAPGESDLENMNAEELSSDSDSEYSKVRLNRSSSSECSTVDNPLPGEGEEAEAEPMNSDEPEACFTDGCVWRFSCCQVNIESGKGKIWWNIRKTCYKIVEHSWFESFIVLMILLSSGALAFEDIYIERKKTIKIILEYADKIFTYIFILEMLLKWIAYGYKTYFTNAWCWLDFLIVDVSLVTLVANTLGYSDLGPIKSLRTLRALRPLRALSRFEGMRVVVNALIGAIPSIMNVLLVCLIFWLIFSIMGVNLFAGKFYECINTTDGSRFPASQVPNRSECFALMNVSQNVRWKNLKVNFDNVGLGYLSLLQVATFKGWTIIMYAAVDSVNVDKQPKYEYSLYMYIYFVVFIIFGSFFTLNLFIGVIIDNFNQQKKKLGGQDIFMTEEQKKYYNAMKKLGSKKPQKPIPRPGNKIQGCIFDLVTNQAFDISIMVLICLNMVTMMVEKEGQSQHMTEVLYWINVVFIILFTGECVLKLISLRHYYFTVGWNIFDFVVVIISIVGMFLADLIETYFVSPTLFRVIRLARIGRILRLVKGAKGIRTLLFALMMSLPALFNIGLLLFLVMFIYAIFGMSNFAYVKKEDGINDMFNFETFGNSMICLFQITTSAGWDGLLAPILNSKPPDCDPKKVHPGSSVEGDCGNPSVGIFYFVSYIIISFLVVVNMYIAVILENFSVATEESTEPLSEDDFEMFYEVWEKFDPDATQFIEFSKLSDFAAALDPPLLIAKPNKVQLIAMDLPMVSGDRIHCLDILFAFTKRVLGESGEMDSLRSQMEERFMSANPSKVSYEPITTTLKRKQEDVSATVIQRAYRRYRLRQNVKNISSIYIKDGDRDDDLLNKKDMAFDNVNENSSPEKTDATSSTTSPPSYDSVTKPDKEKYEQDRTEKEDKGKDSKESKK

SMILES: CC(C)(C)c1ccc(/C=C/C(=O)Nc2ccc3c(c2)OCCO3)cc1 [AMG9810]
- effect of antagonist pretreatment on amitriptyline-induced calcium ion mobilization (TRPV1; 5-min pretreatment, 10 μM TRPV1 antagonist): had no effect

SMILES: CN(C)CCC=C1c2ccccc2CCc2ccccc21 [amitriptyline, Amitriptyline]
- time to increase in intracellular calcium ions (mouse DRG neurons; 0.1 mM): ≤ 10 s
- time to plateau of intracellular calcium ion amplitude curve (mouse DRG neurons; 0.1 mM): around 20 seconds
- IC50 (mouse DRG neurons; Mus musculus, DRG neuron, 0.01 mM-1 mM, read-out: IC50, percentage of DRG neurons displaying intracellular calcium mobilization): 50 µM
- IC50 (Nav1.8): 4.25 ± 0.4 µM
- IC50 [1]: 62 ± 0.5 µM
- discharge of a low-threshold Aβ mechanoreceptor, representative recording (Aβ fibers; 1 mN stimulus, 100 μM, 5 and 10 min superfusion): inhibition was not complete
- reversal of inhibition after washout, Aβ mechanoreceptor (Aβ fibers; 30 min washout after 100 μM): partially reversed
- IC50 (Aβ fibers; [5]): ~26 µM
- inhibition at 100 µM (Aβ fibers; [6]): 82.5%
- firing in a C-type mechanonociceptor fiber, representative recording (C fibers; 11.4 mN stimulation, 100 μM, 10 min superfusion): Full inhibition of firing
- IC50 (C fibers; [5]): ~15 µM
- inhibition at 100 µM (C fibers; [6]): 95.6%
- efficacy in the treatment of neuropathic pain (neuropathic pain): not efficacious
- time of washout to reversal of inhibition (C, Aδ and Aβ fibers): 30 to 35 min
- time to reversal of inhibition [2]: ≤ 20 ± 2 min
- IC50 (Aδ fibers; skin superfusion 10 min, 10-100 μM, read-out: IC50, inhibition of mechanically induced firing): ~16 µM
- inhibition at 100 µM (Aδ fibers; 100 μM, 10 min application to the skin preparation, read-out: Mean inhibition of evoked firing): 87.5%
- amitriptyline bioavailability ([3]; 10 mg of 10% cream per cell, 16 hours): 22.5 µg
- amitriptyline present in the epidermis ([3]; compared with dermis, 10% cream, 16 hours): 26%
- amitriptyline present in the dermis ([3]; compared with epidermis, 10% cream, 16 hours): Approximately 74%
- passage into the bloodstream ([3]; relative to the amount of amitriptyline present in the composition): less than 0.1%
- IC50 (hNav1.7): 4.25 ± 0.4 µM
- potentiation of DRG neuron activation induced by TRPA1 agonist (TRPA1; 0.01 mM, 5-min incubation, 50 μM AITC): did not potentiate
- potentiation of DRG neuron activation induced by TRPV1 agonist (TRPV1; 0.01 mM, 5-min incubation, 62 nM capsaicin): did not potentiate
- plasma half-life [4]: 9 to 36 h
- IC50 (Nav1.9): 15.6 ± 0.5 µM

SMILES: CC(C)c1ccc(NC(=O)Cn2cnc3c2c(=O)n(C)c(=O)n3C)cc1 [HC30301]
- effect of antagonist pretreatment on amitriptyline-induced calcium ion mobilization (TRPA1; 5-min pretreatment, excess of TRPA1 antagonist): led to inhibition of amitriptyline-induced calcium ion mobilization
